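A five-concentration, 48-hour dose response in 96-well plates underlies each endpoint, interpolated linearly between surrounding concentrations. Here, GI50 denotes the concentration required for 50% inhibition of growth.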 The source made the active and inactive calls. Cut-off read from the data, not from the text of the source: active = GI50 up to about 1.1 µM and inactive = higher.
What was measured:
Assay in all cases: NCI-60 cell line screen, 48 h
[1] = tested on: SNB-75
[2] = tested on: 786-0
[3] = tested on: RXF 393
[4] = tested on: HL-60
[5] = tested on: U-251
[6] = tested on: K562
[7] = tested on: SF-539
[8] = tested on: SW-620
[9] = tested on: SNB-78
[10] = tested on: IGROV-1
[11] = tested on: M14
[12] = tested on: HCC 2998
[13] = tested on: EKVX
[14] = tested on: NCI-H226
[15] = tested on: OVCAR-5
[16] = tested on: UACC-257
[17] = tested on: SK-MEL-2

Row | SMILES | GI50 [1] | GI50 [2] | GI50 [3] | GI50 [4] | GI50 [5] | GI50 [6] | GI50 [7] | GI50 [8] | GI50 [9] | GI50 [10] | GI50 [11] | GI50 [12] | GI50 [13] | GI50 [14] | GI50 [15] | GI50 [16] | GI50 [17]
1 | C/C(=N\N=C(\N)S)c1ccc(Oc2ccccc2)cc1 | 7.38 µM (inactive) | 4.05 µM (inactive) | 10.3 µM (inactive) | 4.06 µM (inactive) | 15.4 µM (inactive) | 4.83 µM (inactive) | 5.38 µM (inactive) | 16.3 µM (inactive) | 14.2 µM (inactive) | 2.59 µM (inactive) | 9.98 µM (inactive) | 7.93 µM (inactive) | 12.2 µM (inactive) |  |  |  | 
2 | O=c1ncc(F)cn1C1OC(CO)C(O)C1O (stereo not drawn) | 6.24 µM (inactive) | > 36.4 µM (inactive) | > 100 µM (inactive) | 19.3 µM (inactive) | > 14.9 µM (inactive) | 7.38 µM (inactive) | > 34.9 µM (inactive) | > 31.4 µM (inactive) | > 29.7 µM (inactive) | > 30.8 µM (inactive) | > 52 µM (inactive) | 16.9 µM (inactive) | > 100 µM (inactive) | > 19.1 µM (inactive) | > 52 µM (inactive) | 14.1 µM (inactive) | > 28.3 µM (inactive)
3 | [O-][S+]1c2ccccc2N=C(c2ccc3ccccc3c2)CC1c1ccccc1 (stereo not drawn) | 17.1 µM (inactive) |  |  | 25.9 µM (inactive) | 18.6 µM (inactive) | 23.7 µM (inactive) | 18.4 µM (inactive) | 15.3 µM (inactive) | 47.3 µM (inactive) | 16.9 µM (inactive) | 47.2 µM (inactive) | 21.9 µM (inactive) | 25.1 µM (inactive) | 23.3 µM (inactive) | 21.5 µM (inactive) | 28.1 µM (inactive) | 30.8 µM (inactive)
4 | Cc1ccc2nc(NC(=O)C(=O)CC(=O)c3cccc4ccccc34)sc2c1 | 16.9 µM (inactive) | 20.2 µM (inactive) |  | > 100 µM (inactive) | 22 µM (inactive) | 31.5 µM (inactive) | 24.7 µM (inactive) | 38.9 µM (inactive) | 32.9 µM (inactive) | 31.7 µM (inactive) | 19.6 µM (inactive) | 39.2 µM (inactive) | 92 µM (inactive) | 19.8 µM (inactive) | > 100 µM (inactive) | 27.2 µM (inactive) | 35.5 µM (inactive)
5 | O=C(C#Cc1ccccc1)Nc1ccccc1CC(c1c[nH]c2ccccc12)c1c[nH]c2ccccc12 | 5.9 µM (inactive) | 9.53 µM (inactive) | 3.02 µM (inactive) |  |  | 4.47 µM (inactive) | 12.3 µM (inactive) | 12.1 µM (inactive) | 11.5 µM (inactive) | 16.3 µM (inactive) | 15.6 µM (inactive) | 23.2 µM (inactive) | 12.3 µM (inactive) | 16.6 µM (inactive) |  | 23.8 µM (inactive) | 18.3 µM (inactive)
6 | O=C(O)CNCc1c2ccccc2[n+]([O-])c2ccccc12 | 34.5 µM (inactive) | 58.2 µM (inactive) |  | 33.5 µM (inactive) | > 100 µM (inactive) | 38.2 µM (inactive) |  | 47 µM (inactive) | 92.3 µM (inactive) | 91.6 µM (inactive) | > 100 µM (inactive) | 21.7 µM (inactive) | > 100 µM (inactive) | > 100 µM (inactive) | > 100 µM (inactive) | > 100 µM (inactive) | > 100 µM (inactive)
7 | COc1ccc(OC)c(NC(=O)C2=C(C)NC(C)=C(C(=O)Nc3cc(OC)ccc3OC)C2c2ccco2)c1 | > 100 µM (inactive) | > 100 µM (inactive) |  |  | > 100 µM (inactive) | > 100 µM (inactive) | > 100 µM (inactive) | > 100 µM (inactive) | > 100 µM (inactive) | > 100 µM (inactive) | > 100 µM (inactive) |  | > 100 µM (inactive) | > 100 µM (inactive) | > 100 µM (inactive) |  | > 100 µM (inactive)
8 | C/C=C(\C)C(=O)N1c2ccccc2CC1c1c(C)[nH]c2ccccc12 (stereo not drawn) | 35 µM (inactive) | > 100 µM (inactive) | > 100 µM (inactive) | 15.1 µM (inactive) | 91.6 µM (inactive) | 39.6 µM (inactive) | 50.8 µM (inactive) | > 100 µM (inactive) | 86.5 µM (inactive) | 39.6 µM (inactive) | 39.3 µM (inactive) | > 100 µM (inactive) | 71.1 µM (inactive) | > 100 µM (inactive) | 37.3 µM (inactive) | 25.2 µM (inactive) | 19.3 µM (inactive)
9 | C[C@]12CC[C@H](O)CC1=CC[C@@H]1C2CC[C@]2(C)C(=O)N(N)C(=O)CC12 (stereo partly drawn) | 5.38 µM (inactive) | > 100 µM (inactive) | > 100 µM (inactive) | > 100 µM (inactive) | > 100 µM (inactive) | > 100 µM (inactive) | > 100 µM (inactive) | > 100 µM (inactive) | > 100 µM (inactive) | > 100 µM (inactive) | > 100 µM (inactive) | > 100 µM (inactive) | > 100 µM (inactive) | > 100 µM (inactive) | > 100 µM (inactive) | > 100 µM (inactive) | > 100 µM (inactive)
10 | CCOc1ccc(O)cc1[P+](c1ccccc1)(c1ccccc1)c1ccccc1 | 4.5 µM (inactive) | 7.24 µM (inactive) | 3.59 µM (inactive) | 0.501 µM (active) | 2.54 µM (inactive) | 1.49 µM (inactive) | 3.83 µM (inactive) |  | 4.15 µM (inactive) |  | 4.45 µM (inactive) | 2.82 µM (inactive) | 11.5 µM (inactive) | 1.64 µM (inactive) | 2.66 µM (inactive) | 0.647 µM (active) | 
11 | COc1cc2c3c(c1OCc1ccccc1)NCCC3NCC2 (stereo not drawn) | 43.7 µM (inactive) | > 100 µM (inactive) | 98.2 µM (inactive) | > 100 µM (inactive) | > 100 µM (inactive) | > 100 µM (inactive) | > 100 µM (inactive) | > 100 µM (inactive) | > 100 µM (inactive) | > 100 µM (inactive) | > 100 µM (inactive) | > 100 µM (inactive) | > 100 µM (inactive) | > 100 µM (inactive) | > 100 µM (inactive) | > 100 µM (inactive) | 
12 | CCN(CC)c1ccc(C2N3CCCCC3[C@@H]3c4[nH]c5ccccc5c4CCN23)cc1 (stereo partly drawn) | 6.11 µM (inactive) | 37.8 µM (inactive) | 15.8 µM (inactive) | 7.43 µM (inactive) | 29.6 µM (inactive) | 15.2 µM (inactive) | 18.3 µM (inactive) | 33.5 µM (inactive) | 22.1 µM (inactive) | 42.8 µM (inactive) | 24.8 µM (inactive) |  | 74.8 µM (inactive) |  | 51.3 µM (inactive) | 27.7 µM (inactive) | > 10 µM (inactive)
13 | CN(C)c1nc(N(C)C)nc(N(C)CN(C)c2nc(N(C)C)nc(N(C)C)n2)n1 | > 100 µM (inactive) | 14.9 µM (inactive) | > 100 µM (inactive) | > 100 µM (inactive) | > 100 µM (inactive) | > 100 µM (inactive) | > 100 µM (inactive) | > 100 µM (inactive) | > 100 µM (inactive) | > 100 µM (inactive) | > 100 µM (inactive) | > 100 µM (inactive) | > 100 µM (inactive) |  | > 100 µM (inactive) | > 100 µM (inactive) | > 100 µM (inactive)
14 | O[C@]12CCCC[C@H]1CCC2 | > 100 µM (inactive) | > 100 µM (inactive) | > 100 µM (inactive) | > 100 µM (inactive) | > 100 µM (inactive) | > 100 µM (inactive) | > 100 µM (inactive) | > 100 µM (inactive) | > 100 µM (inactive) | > 100 µM (inactive) | > 100 µM (inactive) | > 100 µM (inactive) | > 100 µM (inactive) |  | > 100 µM (inactive) | > 100 µM (inactive) | > 100 µM (inactive)
15 | COc1cc(C2c3cc4c(cc3[C@@H](NCCN3CCCCC3)C3COC(=O)[C@H]23)OCO4)cc(OC)c1O (stereo partly drawn) |  | 0.179 µM (active) |  | 0.0426 µM (active) | 0.109 µM (active) | 0.615 µM (active) | 0.134 µM (active) | 1.04 µM (active) | 2.57 µM (inactive) | 1.33 µM (inactive) | 0.273 µM (active) |  | 1.55 µM (inactive) | 0.0387 µM (active) | 1.41 µM (inactive) | 2.78 µM (inactive) | 2.07 µM (inactive)
16 | CC1=C(N(C)C)C(=O)c2nc3n(c2C1=O)CCC3OC(N)=O (stereo not drawn) | 23.7 µM (inactive) | 17.1 µM (inactive) |  | 10.4 µM (inactive) | 23.2 µM (inactive) | 18.5 µM (inactive) | 17.5 µM (inactive) | 18.7 µM (inactive) | 23 µM (inactive) | 16.8 µM (inactive) | 13.6 µM (inactive) | 18.2 µM (inactive) | 20.5 µM (inactive) | 19.4 µM (inactive) | 19.6 µM (inactive) | 14.2 µM (inactive) | 15.6 µM (inactive)
17 | Cc1c(O)c(=O)ccn1CCO | > 100 µM (inactive) | > 100 µM (inactive) | > 100 µM (inactive) | > 100 µM (inactive) | > 100 µM (inactive) | > 100 µM (inactive) |  | > 100 µM (inactive) | > 100 µM (inactive) |  | > 100 µM (inactive) |  | > 100 µM (inactive) | > 100 µM (inactive) | > 100 µM (inactive) | > 100 µM (inactive) | > 100 µM (inactive)
18 | Cc1c(O)c(=O)ccn1CCN | > 100 µM (inactive) | > 100 µM (inactive) | > 100 µM (inactive) |  | > 100 µM (inactive) | > 100 µM (inactive) |  | > 100 µM (inactive) | > 100 µM (inactive) | > 100 µM (inactive) | > 100 µM (inactive) | > 100 µM (inactive) | > 100 µM (inactive) | > 100 µM (inactive) | > 100 µM (inactive) | > 100 µM (inactive) | > 100 µM (inactive)

Source: ChEMBL document CHEMBL1201862, “PubChem BioAssay data set” (2004)
